Experimental data published in patent US11179348B2, “Combination comprising pterostilbene for the treatment of cancer” (FUNDACIÓN UNIVERSIDAD CATÓLICA DE VALENCIA SAN VICENTE …, priority 2015, dated 2021).
Marks after values point to notes of the source that are not given here.

Assays:
A2058 melanoma = experiment: In vivo growth of A2058 melanoma xenografts in nu/nu mice; design: species or system human
B16-F1 melanoma = experiment: In vivo growth of murine B16-F1 melanoma; conditions: B16-F1-RFP; 15 days after inoculation; Pter 30 mg/kg i.v. every 24 h, ± CRC
Experimental: FIG. 14. In vivo effect of Pter on tumor growth (A) and on corticosterone (B) and ACTH (C) levels in plasma of murine B16-F1 melanoma-bearing mice. Pter (30 mg/kg) was administered i.v. every 24 h for a period of 15 days, starting 3 days after tumor inoculation.

A2058 melanoma cells = experiment: Nrf2- and redox state-related enzyme activities and metabolites in A2058 cells growing in vivo; design: species or system human; conditions: A2058, in vivo +Pter, day 35
Experimental: Transfection of the Red Fluorescence Protein.
First the pDsRed-2 vector (Clontech Laboratories Inc., Palo Alto, Calif.) was used, as previously described for A375 melanoma cells (Mena, S. et al. J Transl Med 10, 8 (2012)), to engineer A2058, MeWo and MelJuso melanoma clones stably expressing the RFP. Isolation of A2058-RFP, MeWo-RFP or MelJuso-RFP cells from the growing xenografts was performed by laser microdissection and high-performance cell sorting as previously described in detail (Mena, S. et al. J Transl Med 10, 8 (2012)).
To measure enzyme activity, isolated tumor cells were homogenized in 0.1 M phosphate buffer (pH 7.2) at 4° C. GCL and GSS activities were measured as described previously (Obrador, E. et al. Hepatology 35, 74-81 (2002)). GPX (selenium dependent) activity was measured as described by Flohé and Gunzler (Flohe, L. & Gunzler, W. A. Methods Enzymol 105, 114-121 (1984)) using H2O2 as a substrate. GSR activity was determined as described by Akerboom and Sies (Akerboom, T. P. et al, Bull Eur Physiopathol Respir 17 Suppl, 221-227 (1981)). GGT activity was measured as described previously (Obrador, E. et al. Hepatology 35, 74-81 (2002)). GST activity was measured using an assay kit from Sigma. TXNRD activity, defined by the concentration of sodium-lipoate (disulfide) reduced to dehydrolipoate (dithiol) per milligram protein, was measured as previously described (Javvadi, P. et al. Cancer Res 70, 1941-1950 (2010)). SOD activity was measured as described by Flohé and Otting (Flohe, L. & Otting, F. Methods Enzymol 105, 93-104 (1984).) using 2 mM cyanide in the assay medium to distinguish mangano-type enzyme (SOD2) from the cuprozinc type (SOD1). CAT activity was analyzed as described by Aebi (Aebi, H. Methods Enzymol 105, 121-126 (1984)). NOX activity was measured by chemiluminescence following the methodology of Wind et al. (Wind, S. et al. Comparative pharmacology of chemically distinct NADPH oxidase inhibitors. Br J Pharmacol 161, 885-898 (2010)). Protein concentration was determined with the Pierce BCA protein assay (Fisher Scientific, Waltham, Mass.).
Measurement of H2O2 and O2^⋅−.
Quantitative measurement of H2O2 and flow cytometry determination of O2^⋅− generation were performed as previously described (Benlloch, M. et al. J Biol Chem 281, 69-79 (2006)).
GSH, GSSG, NADP^+ and NADPH Determination.
GSH and GSSG were determined, following procedures previously described (Obrador, E. et al. PLoS One 9, e96466 (2014)), by LC/MS using the same equipment described above for pterostilbene determination. Cell processing was performed according to published methodology, where rapid N-ethylmaleimide derivatization was used to prevent GSH auto-oxidation (Asensi, M. et al. Anal Biochem 217, 323-328 (1994)). NADP^+ and NADPH were quantitated using an assay kit from Sigma (St. Louis, Mo.).

human A375 melanoma = conditions: 20 μM Pter, 24 h, in vitro; cited from earlier work
A549 human lung cancer = conditions: 20 μM Pter, 24 h, in vitro; cited from earlier work
human breast cancer = conditions: 20 μM Pter, 24 h, in vitro; cited from earlier work

COc1cc(/C=C/c2ccc(O)cc2)cc(OC)c1 [Pter, trans-3,5-dimethoxy-4′-hydroxystilbene]
inhibition of tumor growth (A2058 melanoma; A2058, day 35, 30 mg Pter/kg i.v. every 48 h, vs controls): approx. 70%
Tumor vol. (A2058 melanoma; A2058-RFP, 35 days after inoculation, Pter 30 mg/kg i.v. every 48 h and/or CRC infusion 0.3 μg/h): 258 ± 66* mm^3
Tumor vol. (B16-F1 melanoma): 790 ± 156* mm^3
CAT (A2058 melanoma cells): 1.7 ± 0.3 mU/10^6 cells
G6PDH (A2058 melanoma cells): 305 ± 78 mU/10^6 cells
GCL (A2058 melanoma cells): 58 ± 17 mU/10^6 cells
GGT (A2058 melanoma cells): 19.6 ± 2.7 mU/10^6 cells
GPX (A2058 melanoma cells): 3.9 ± 1.1 mU/10^6 cells
GSH (A2058 melanoma cells): 10.5 ± 2.1 nmol/10^6 cells
GSH/GSSG (A2058 melanoma cells): 35 ± 5
GSR (A2058 melanoma cells): 6.1 ± 1.6 mU/10^6 cells
GSS (A2058 melanoma cells): 8.5 ± 2.0 mU/10^6 cells
GSSG (A2058 melanoma cells): 0.3 ± 0.1 nmol/10^6 cells
GST (A2058 melanoma cells): 7.5 ± 1.3 mU/10^6 cells
H2O2 (A2058 melanoma cells): 0.7 ± 0.2 nmol/10^6 cells × min
IDH (A2058 melanoma cells): 1.2 ± 0.4 U/10^6 cells
ME (A2058 melanoma cells): 43 ± 12 mU/10^6 cells
NADPH (A2058 melanoma cells): 0.06 ± 0.02 nmol/mg prot
NADPH/NADP^+ (A2058 melanoma cells): 1.2 ± 0.3
NADP^+ (A2058 melanoma cells): 0.05 ± 0.01 nmol/mg prot
NOX (A2058 melanoma cells): 177 ± 4.5 R.L.U./10^6 cells
O2^− (A2058 melanoma cells): 3.9 ± 0.6 ΔFL1, a.u.
SOD1 (A2058 melanoma cells): 0.6 ± 0.2 U/10^6 cells
SOD2 (A2058 melanoma cells): 0.1 ± 0.05 U/10^6 cells
TXN (A2058 melanoma cells): 0.5 ± 0.1 μg/10^6 cells
TXNRD (A2058 melanoma cells): 0.7 ± 0.2 U/10^6 cells
decrease in tumor cell viability (human A375 melanoma): approx. 30%
decrease in tumor cell viability (A549 human lung cancer): ~40%
decrease in tumor cell viability (human breast cancer): ~25%
